Data reported in patent EP4707280A1, “1,4-CINEOLE DERIVATIVE AND INTERMEDIATE THEREOF, HERBICIDE CONTAINING SAID DERIVATIVE AS ACTIVE INGREDIENT, METHOD FOR USING HERBICIDE, AND METHOD FOR PREPARING AGROCHEMICAL COMPOSITION” (HOKKO CHEMICAL INDUSTRY CO., LTD., priority 2023, dated 2024).

Experiments:
Assay type in all cases: in vivo
Echinochloa crus-galli [1] = assay: Test Example 4: herbicidal effect test by stem and leaf treatment in upland field; settings: 120 g per 10 ares, sprayed seven days after sowing, upland soil, 14 days after application; for inhibition at 1200 g/ha: Echinochloa crus-galli, read-out: weed inhibition rate
Scirpus juncoides [2] = assay: Test Example 1: herbicidal effect test by soil application in paddy rice; settings: 120 g active ingredient per 10 ares, applied immediately after sowing, flooded pots, 14 days after application; for pest or weed control at 1200 g/ha: Schoenoplectiella juncoides, soil, 336 h, read-out: weed inhibition rate
Procedure, shortened: (§1)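 Pre-emergence paddy soil application, 120 g a.i./10 a, emulsifiable concentrate diluted in water, applied by dropper right after sowing. Seeds (30/species) sown 0–1 cm in puddled, fertilized soil; flooded ~3 cm; glass greenhouse.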

[3] = tested on: Echinochloa crus-galli var. formosensis; assay: as above; settings: 120 g active ingredient per 10 ares, applied immediately after sowing, flooded pots, 14 days after application; for pest or weed control at 1200 g/ha: Echinochloa crus-galli, soil, 336 h, read-out: weed inhibition rate
Procedure, shortened: as §1

Digitaria ciliaris [4] = assay: Test Example 4: herbicidal effect test by stem and leaf treatment in upland field; settings: 120 g per 10 ares, sprayed seven days after sowing, upland soil, 14 days after application; for inhibition at 1200 g/ha: Digitaria ciliaris, read-out: weed inhibition rate
Echinochloa crus-galli [5] = assay: Test Example 8: herbicidal effect test by stem and leaf treatment in upland field (low dose); settings: 7.5 g per 10 ares, sprayed seven days after sowing, upland soil, 14 days after application; for inhibition at 75 g/ha: Echinochloa crus-galli, read-out: weed inhibition rate
Digitaria ciliaris [6] = assay: as above; settings: 7.5 g per 10 ares, sprayed seven days after sowing, upland soil, 14 days after application; for inhibition at 75 g/ha: Digitaria ciliaris, read-out: weed inhibition rate
Echinochloa crus-galli [7] = assay: Test Example 3: herbicidal effect test by soil application in upland field; settings: 120 g per 10 ares, sprayed one day after sowing, 14 days after application; for inhibition at 1200 g/ha: Echinochloa crus-galli, read-out: weed inhibition rate
Procedure, shortened: (§2)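 Weed inhibition (%) was assessed 14 days after treatment, in duplicate per concentration group. Seeds had been mixed into the upper 1 cm of upland alluvial loam, and the soil surface was sprayed one day later with the diluted emulsifiable concentrate at 120 g active ingredient per 10 ares.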

Digitaria ciliaris [8] = assay: as above; settings: 120 g per 10 ares, sprayed one day after sowing, 14 days after application; for inhibition at 1200 g/ha: Digitaria ciliaris, read-out: weed inhibition rate
Procedure, shortened: as §2

Scirpus juncoides [9] = assay: Test Example 2: herbicidal effect test by application during growth period of paddy rice; settings: 120 g per 10 ares, applied seven days after sowing, flooded pots, 14 days after application; for inhibition at 1200 g/ha: Schoenoplectiella juncoides, read-out: weed inhibition rate
Procedure, shortened: (§3)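 Weeds sown into puddled, flooded paddy soil received a post-emergence water application of emulsifiable concentrate at 120 g active ingredient per 10 ares, seven days after sowing. Herbicidal effect was rated 14 days later as inhibition (%).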

[10] = tested on: Echinochloa crus-galli var. formosensis; assay: as above; settings: 120 g per 10 ares, applied seven days after sowing, flooded pots, 14 days after application; for inhibition at 1200 g/ha: Echinochloa crus-galli, read-out: weed inhibition rate
Procedure, shortened: as §3

[11] = tested on: Echinochloa crus-galli var. formosensis; assay: Test Example 6: herbicidal effect test by application during growth period of paddy rice (low dose); settings: 7.5 g per 10 ares, applied seven days after sowing, flooded pots, 14 days after application; for inhibition at 75 g/ha: Echinochloa crus-galli, read-out: weed inhibition rate
Procedure, shortened: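 Emulsifiable concentrate, water-diluted, dropped onto flooded paddy pots 7 days post-sowing at 7.5 g active ingredient/10 a. Greenhouse-grown weeds; percent inhibition scored at day 14 after treatment.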

Echinochloa crus-galli [12] = assay: Test Example 7: herbicidal effect test by soil application in upland field (low dose); settings: 7.5 g per 10 ares, sprayed one day after sowing, 14 days after application; for inhibition at 75 g/ha: Echinochloa crus-galli, read-out: weed inhibition rate
Procedure, shortened: (§4)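 Low-dose soil treatment at 7.5 g a.i. per 10 a, applied as a diluted emulsifiable concentrate sprayed onto the soil surface one day after sowing in upland alluvial loam. Duplicate pots; percent weed inhibition is read 14 days after application.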

Digitaria ciliaris [13] = assay: as above; settings: 7.5 g per 10 ares, sprayed one day after sowing, 14 days after application; for inhibition at 75 g/ha: Digitaria ciliaris, read-out: weed inhibition rate
Procedure, shortened: as §4

[14] = tested on: Echinochloa crus-galli var. formosensis; assay: Test Example 5: herbicidal effect test by soil application in paddy rice (low dose); settings: 7.5 g per 10 ares, applied immediately after sowing, flooded pots, 14 days after application; for inhibition at 75 g/ha: Echinochloa crus-galli, soil, 336 h, read-out: weed inhibition rate
Procedure, shortened: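 Pots of puddled, fertilized paddy soil receive 30 seeds per species at 0–1 cm depth and are flooded to about 3 cm. The diluted emulsifiable concentrate is then dropped onto the water, delivering 7.5 g active ingredient per 10 ares. Greenhouse grown; herbicidal effect scored 14 days later, two replicates.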

CC(C)C12CC(OCc3ccccc3F)C(C)(CC1I)O2 (stereo not shown) [1-1421, 2-[(2-fluorophenyl)methoxy]-5-iodo-1-methyl-4-isopropyl-7-oxabicyclo[2.2.1]heptane]
≥ 80%: inhibition at 1200 g/ha (Echinochloa crus-galli [1]) | pest or weed control at 1200 g/ha (Scirpus juncoides [2]) | pest or weed control at 1200 g/ha [3] | inhibition at 1200 g/ha (Digitaria ciliaris [4]) | inhibition at 75 g/ha (Echinochloa crus-galli [5]) | inhibition at 75 g/ha (Digitaria ciliaris [6]) | inhibition at 1200 g/ha (Echinochloa crus-galli [7]) | inhibition at 1200 g/ha (Digitaria ciliaris [8]) | inhibition at 1200 g/ha (Scirpus juncoides [9]) | inhibition at 1200 g/ha [10] | inhibition at 75 g/ha [11] | inhibition at 75 g/ha (Echinochloa crus-galli [12]) | inhibition at 75 g/ha (Digitaria ciliaris [13]) | inhibition at 75 g/ha [14]

CC(C)[C@]12C[C@@H](OCc3ccccc3F)[C@](C)(C=C1OS(=O)(=O)C(F)(F)F)O2 (racemic) [3-680]
≥ 80%: weed inhibition rate (Echinochloa crus-galli [1]) | weed inhibition rate (Scirpus juncoides [2]) | weed inhibition rate [3] | weed inhibition rate (Digitaria ciliaris [4]) | weed inhibition rate (Echinochloa crus-galli [5]) | weed inhibition rate (Digitaria ciliaris [6]) | weed inhibition rate (Echinochloa crus-galli [7]) | weed inhibition rate (Digitaria ciliaris [8]) | weed inhibition rate (Scirpus juncoides [9]) | weed inhibition rate [10] | weed inhibition rate [11] | weed inhibition rate (Echinochloa crus-galli [12]) | weed inhibition rate (Digitaria ciliaris [13]) | weed inhibition rate [14]

CC(C)C12CC(OCc3c(Cl)cccc3Cl)C(C)(CC1Cl)O2 (stereo not shown) [1-1314, 5-chloro-2-[(2,6-dichlorophenyl)methoxy]-1-methyl-4-isopropyl-7-oxabicyclo[2.2.1]heptane]
≥ 80%: inhibition at 1200 g/ha (Echinochloa crus-galli [1]) | pest or weed control at 1200 g/ha (Scirpus juncoides [2]) | pest or weed control at 1200 g/ha [3] | inhibition at 1200 g/ha (Digitaria ciliaris [4]) | inhibition at 75 g/ha (Echinochloa crus-galli [5]) | inhibition at 75 g/ha (Digitaria ciliaris [6]) | inhibition at 1200 g/ha (Echinochloa crus-galli [7]) | inhibition at 1200 g/ha (Digitaria ciliaris [8]) | inhibition at 1200 g/ha (Scirpus juncoides [9]) | inhibition at 1200 g/ha [10] | inhibition at 75 g/ha [11] | inhibition at 75 g/ha (Echinochloa crus-galli [12]) | inhibition at 75 g/ha (Digitaria ciliaris [13]) | inhibition at 75 g/ha [14]

CC(C)C12CC(OCc3c(F)cccc3F)C(C)(CC1Cl)O2 (stereo not shown) [1-1313, 5-chloro-2-[(2,6-difluorophenyl)methoxy]-1-methyl-4-isopropyl-7-oxabicyclo[2.2.1]heptane]
≥ 80%: inhibition at 1200 g/ha (Echinochloa crus-galli [1]) | pest or weed control at 1200 g/ha (Scirpus juncoides [2]) | pest or weed control at 1200 g/ha [3] | inhibition at 1200 g/ha (Digitaria ciliaris [4]) | inhibition at 75 g/ha (Echinochloa crus-galli [5]) | inhibition at 75 g/ha (Digitaria ciliaris [6]) | inhibition at 1200 g/ha (Echinochloa crus-galli [7]) | inhibition at 1200 g/ha (Digitaria ciliaris [8]) | inhibition at 1200 g/ha (Scirpus juncoides [9]) | inhibition at 1200 g/ha [10] | inhibition at 75 g/ha [11] | inhibition at 75 g/ha (Echinochloa crus-galli [12]) | inhibition at 75 g/ha (Digitaria ciliaris [13]) | inhibition at 75 g/ha [14]

CC(C)C12CC(OCc3c(F)cccc3Cl)C(C)(CC1Cl)O2 (stereo not shown) [1-1315, 5-chloro-2-[(2-chloro-6-fluorophenyl)methoxy]-1-methyl-4-isopropyl-7-oxabicyclo[2.2.1]heptane]
≥ 80%: inhibition at 1200 g/ha (Echinochloa crus-galli [1]) | pest or weed control at 1200 g/ha (Scirpus juncoides [2]) | pest or weed control at 1200 g/ha [3] | inhibition at 1200 g/ha (Digitaria ciliaris [4]) | inhibition at 75 g/ha (Echinochloa crus-galli [5]) | inhibition at 75 g/ha (Digitaria ciliaris [6]) | inhibition at 1200 g/ha (Echinochloa crus-galli [7]) | inhibition at 1200 g/ha (Digitaria ciliaris [8]) | inhibition at 1200 g/ha (Scirpus juncoides [9]) | inhibition at 1200 g/ha [10] | inhibition at 75 g/ha [11] | inhibition at 75 g/ha (Echinochloa crus-galli [12]) | inhibition at 75 g/ha (Digitaria ciliaris [13]) | inhibition at 75 g/ha [14]
